Experimental data: ChEMBL document CHEMBL3046116, “QSAR and pharmacophore analysis of thiosemicarbazone derivatives as ribonucleotide reductase inhibitors” (Med Chem Res, 2012)

Molecular target: T1, Ribonucleoside-diphosphate reductase RR1 (Homo sapiens, UniProt P23921+P31350+Q7LG56)
T1 sequence (P23921 whole entry): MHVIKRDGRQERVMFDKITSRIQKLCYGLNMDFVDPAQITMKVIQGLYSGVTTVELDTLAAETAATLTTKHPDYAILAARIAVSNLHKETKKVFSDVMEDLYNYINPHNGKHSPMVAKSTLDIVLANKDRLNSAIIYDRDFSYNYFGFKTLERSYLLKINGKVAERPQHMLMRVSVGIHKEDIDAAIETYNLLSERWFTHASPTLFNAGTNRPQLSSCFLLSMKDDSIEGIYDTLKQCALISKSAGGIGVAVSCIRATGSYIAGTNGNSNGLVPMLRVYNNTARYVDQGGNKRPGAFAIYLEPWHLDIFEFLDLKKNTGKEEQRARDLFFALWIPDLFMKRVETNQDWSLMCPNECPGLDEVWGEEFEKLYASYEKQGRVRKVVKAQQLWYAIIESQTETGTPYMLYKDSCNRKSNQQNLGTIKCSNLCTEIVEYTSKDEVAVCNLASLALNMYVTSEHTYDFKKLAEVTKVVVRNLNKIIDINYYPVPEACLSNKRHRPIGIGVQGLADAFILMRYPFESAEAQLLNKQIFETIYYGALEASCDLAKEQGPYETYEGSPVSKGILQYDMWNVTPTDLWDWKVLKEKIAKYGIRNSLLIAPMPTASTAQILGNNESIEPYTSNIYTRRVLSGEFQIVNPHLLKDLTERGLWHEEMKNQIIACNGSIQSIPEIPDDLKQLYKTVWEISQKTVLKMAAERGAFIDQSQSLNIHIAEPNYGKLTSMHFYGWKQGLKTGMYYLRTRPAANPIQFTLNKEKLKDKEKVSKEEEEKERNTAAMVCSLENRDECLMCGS
T1 sequence (Q7LG56 whole entry): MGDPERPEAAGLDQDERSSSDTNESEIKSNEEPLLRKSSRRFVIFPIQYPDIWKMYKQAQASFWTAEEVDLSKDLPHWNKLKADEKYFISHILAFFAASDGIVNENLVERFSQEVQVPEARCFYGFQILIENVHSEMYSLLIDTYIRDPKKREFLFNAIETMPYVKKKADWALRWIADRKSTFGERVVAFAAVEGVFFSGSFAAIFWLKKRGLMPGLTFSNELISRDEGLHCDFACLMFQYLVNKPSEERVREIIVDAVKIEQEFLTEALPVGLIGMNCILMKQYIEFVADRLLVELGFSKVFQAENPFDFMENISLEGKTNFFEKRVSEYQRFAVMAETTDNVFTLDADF
T1 sequence (P31350 whole entry): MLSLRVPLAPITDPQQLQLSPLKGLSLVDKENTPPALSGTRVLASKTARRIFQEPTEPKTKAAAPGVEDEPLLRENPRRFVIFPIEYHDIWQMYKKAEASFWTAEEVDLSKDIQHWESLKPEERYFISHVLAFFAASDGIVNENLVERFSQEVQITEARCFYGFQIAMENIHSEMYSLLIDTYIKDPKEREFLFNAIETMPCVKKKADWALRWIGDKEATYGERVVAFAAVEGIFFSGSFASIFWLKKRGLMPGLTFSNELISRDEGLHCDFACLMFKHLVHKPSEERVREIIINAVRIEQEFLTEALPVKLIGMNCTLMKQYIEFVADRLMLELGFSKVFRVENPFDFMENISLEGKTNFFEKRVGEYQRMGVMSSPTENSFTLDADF
Experiment: Inhibition of N-terminal 6xHis-tagged Homo sapiens (human) recombinant ribonucleotide reductase M2/M1 expressed in Escherichia coli BL21 (DE3) using [3H]CDP as substrate after 30 min

Row | SMILES | IC50
1 | Oc1ccc(/C=N/NC(=S)Nc2ccccc2)cc1 | 242 µM
2 | Cc1ccccc1NC(=S)N/N=C/c1ccc(O)cc1 | 36.5 µM
3 | Oc1ccc(/C=N/NC(=S)Nc2ccccc2Cl)cc1 | 46.8 µM
4 | O=[N+]([O-])c1ccccc1NC(=S)N/N=C/c1ccc(O)cc1 | 39.3 µM
5 | O=[N+]([O-])c1ccc(NC(=S)N/N=C/c2ccc(O)cc2)cc1 | 45.1 µM
6 | Oc1ccc(/C=N/NC(=S)Nc2cccc(Cl)c2)cc1 | 29.3 µM
7 | Oc1ccc(/C=N/NC(=S)Nc2ccccc2O)cc1 | 29.3 µM
8 | Oc1ccc(/C=N/NC(=S)Nc2cccc(O)c2)cc1 | 28.6 µM
9 | COc1ccccc1NC(=S)N/N=C/c1ccc(O)cc1 | 41.6 µM

The remaining lines, values ahead:

Row | IC50 | SMILES
10 | 287 µM | Oc1ccc(/C=N/NC(=S)Nc2ccc(Cl)cc2)cc1
11 | 43.3 µM | Oc1ccc(/C=N/NC(=S)Nc2ccc(O)cc2)cc1
12 | 30.4 µM | Cc1cccc(NC(=S)N/N=C/c2ccc(O)cc2)c1
13 | 14.2 µM | Cc1ccc(NC(=S)N/N=C/c2ccc(O)cc2)cc1
